How the values were obtained:
Assay type in all cases: in vivo
[1] = tested on: blood concentration of total nitric oxides (NOx); test: Blood total nitric oxides (NOx) level in Beagle dogs after 11-day oral administration, NO3- + NO2- by HPLC; conditions: male Beagle dogs, oral once daily, relative to pre-treatment average = 100, mean of 5 dogs
Excerpt: Simvastatin and atorvastatin synthesized at Chemtech Labo., Inc. were used. Gamma-oryzanol was purchased from Riken Vitamin Co., Ltd. and used. Benfotiamine manufactured at Sankyo Co., Ltd. was used.
Male Beagle dogs of 5 months of age were purchased from Covance Research Products Inc. as the test animals and were used after accommodation breeding for approximately 5 months.
The required amount of the test substance calculated based on the body weight of the test animals was weighed and filled in gelatin capsules (TORPAC Inc., 1/2 oz). After filling up, the capsules were placed in a box divided up for every animal and stored under freezing until use.
The capsules filled up with the test substance were orally administered to the test animals once daily via an oral gavage between 9:00-12:30. The test animals were fasted for 2-3 hrs prior to each administration. The administration period was 11 days.
Approximately 10 mL of blood was collected from the cephalic vein of each dog on—14 and—7 day (the 1st and the 2nd week prior to administration) as well as 4, 8, and 12 days after administration. The animals were fasted for approximately 18 hrs before collection of the blood.
The collected blood was placed in a test tube and allowed to stand at room temperature for 30 min to 1 hour. Then the blood was centrifuged (approximately 1,600 g, for 10 min) and the resultant serum obtained was used for assays.
Nitric oxide synthesized by nitric oxide synthase (NOS) is rapidly converted to nitrate ion (NO3^−) and nitrite ion (NO2^−). Blood concentration of total nitric oxides (NOx) is represented by the sum of NO3^− and NO2^− assayed by HPLC.
Relative values of blood concentration of total nitric oxides (NOx) in animals treated with each dose of simvastatin or atorvastatin calcium, gamma-oryzanol, and benfotiamine alone as well as their medicinal compositions as described above were calculated against each converted average value calculated from that determined 2 weeks and one week before treatment into 100.

[2] = Atherosclerosis index (LDL/HDL) in Beagle dogs after 11-day oral administration; conditions: male Beagle dogs, oral once daily, relative to pre-treatment average = 100, mean of 5 dogs, mg/Kg: gamma-oryzanol 100, simvastatin 1
Excerpt: (§1) Simvastatin and atorvastatin synthesized at Chemtech Labo., Inc. were used. Gamma-oryzanol was purchased from Riken Vitamin Co., Ltd. and used. Benfotiamine manufactured at Sankyo Co., Ltd. was used. Male Beagle dogs of 5 months of age were purchased from Covance Research Products Inc. as the test animals and were used after accommodation breeding for approximately 5 months. The required amount of the test substance calculated based on the body weight of the test animals was weighed and filled in gelatin capsules (TORPAC Inc., 1/2 oz). After filling up, the capsules were placed in a box divided up for every animal and stored under freezing until use. The capsules filled up with the test substance were orally administered to the test animals once daily via an oral gavage between 9:00-12:30. The test animals were fasted for 2-3 hrs prior to each administration. The administration period was 11 days. […] The animals were fasted for approximately 18 hrs before collection of the blood. […] In addition, total cholesterol content was assayed by enzymatic assay method while HDL, LDL, and triglyceride were determined by homogeneous method, chemically modified method, and enzymatic techniques, respectively. ALP was assayed by Bessey-Lowry method. Clinical Laboratory System (TBA-120FR, Toshiba Medical Systems Corporation) was used in all of these determinations. […] The values indicate average results calculated from 5 dogs per group.

[3] = Blood total cholesterol level in Beagle dogs after 11-day oral administration, enzymatic assay; conditions: male Beagle dogs, oral once daily, relative to pre-treatment average = 100, mean of 5 dogs, mg/Kg: gamma-oryzanol 100, simvastatin 1
Excerpt: as §1

[4] = Blood LDL level in Beagle dogs after 11-day oral administration; conditions: male Beagle dogs, oral once daily, relative to pre-treatment average = 100, mean of 5 dogs, mg/Kg: gamma-oryzanol 100, simvastatin 1
Excerpt: as §1

[5] = 4 Days after treatment, mg/Kg: benfotiamine 50, simvastatin 1, atorvastatin calcium 2
[6] = 8 Days after treatment, mg/Kg: benfotiamine 50, simvastatin 1, atorvastatin calcium 2
[7] = 12 Days after treatment, mg/Kg: benfotiamine 50, simvastatin 1, atorvastatin calcium 2

SMILES	Changes in blood NOx levels (%) [1, 5] [%]	Changes in blood NOx levels (%) [1, 6] [%]	Changes in blood NOx levels (%) [1, 7] [%]	Changes in blood NOx levels (%) ([1]; 4 Days after treatment, mg/Kg: gamma-oryzanol 100, simvastatin 1)	Changes in blood NOx levels (%) ([1]; 8 Days after treatment, mg/Kg: gamma-oryzanol 100, simvastatin 1)	Changes in blood NOx levels (%) ([1]; 12 Days after treatment, mg/Kg: gamma-oryzanol 100, simvastatin 1)	Changes in atherosclerosis index (LDL/HDL) (%) ([2]; 4 Days after treatment)	Changes in atherosclerosis index (LDL/HDL) (%) ([2]; 8 Days after treatment)	Changes in atherosclerosis index (LDL/HDL) (%) ([2]; 12 Days after treatment)	Changes in blood total cholesterol levels (%) ([3]; 4 Days after treatment)	Changes in blood total cholesterol levels (%) ([3]; 8 Days after treatment)	Changes in blood total cholesterol levels (%) ([3]; 12 Days after treatment)	Changes in blood LDL levels (%) ([4]; 4 Days after treatment)	Changes in blood LDL levels (%) ([4]; 8 Days after treatment)	Changes in blood LDL levels (%) ([4]; 12 Days after treatment)
CC(C)c1c(C(=O)Nc2ccccc2)c(-c2ccccc2)c(-c2ccc(F)cc2)n1CC[C@H](O)C[C@@H](O)CC(=O)O [Atorvastatin calcium, (3R,5S)-7-[2-(4-fluorophenyl)-5-(1-methylethyl)-3-phenyl-4-phenylaminocarbonyl-1H-pyrrol-1-yl]-3,5-dihydroxyheptanoic acid]	117.7	114.1	117.9												
C/C(=C(\CCOP(=O)(O)O)SC(=O)c1ccccc1)N(C=O)Cc1cnc(C)nc1N [Benfotiamine]	96.4	91.6	107.1												
CCC(C)(C)C(=O)O[C@H]1C[C@@H](C)C=C2C=C[C@H](C)[C@H](CC[C@@H]3C[C@@H](O)CC(=O)O3)[C@H]21 [Simvastatin, (+)-(1S,3R,7S,8S,8aR)-1,2,3,7,8,8a-hexahydro-3,7-dimethyl-8-[2-[ (2R,4R)-tetrahydro-4-hydroxy-6-oxo-2H-pyran-2-yl]ethyl]-1-naphthyl 2,2-dimethylbutyrate]	101.6	85.5	121.9	101.6	85.5	121.9	86.6	93.8	86.3	94.8	94.1	92.4	83.9	90.4	81.3
